Data reported in patent US12433964B2, “Antiviral and antibacterial disinfection aero-solution using edible food dyes” (Purdue Research Foundation, priority 2020, dated 2025).

Assay: Lifetime (photobleaching) of photosensitizers by fluorescent emission monitoring
Type: physicochemical
Conditions: for complete photobleaching after (lifetime): 5 μM aqueous solution, green laser 532 nm 6.3 mW cm^−2 / white LED 2400 lux; for lasting time of singlet oxygen generation: estimated for standard illumination level of 500 lux
Experimental: To test the lifetime of photosensitizers, we monitored the fluorescent emission of Rose Bengal and Erythrosine, respectively. FIG. 10a is a graph of normalized intensity vs wavelength showing absorption and fluorescence for Rose Bengal and Erythrosine. 0.5-mL aqueous solutions of each photosensitizer were put into a cuvette and then the fluorescent spectrum was measured using a fiber bundle-coupled spectrometer (VS140 VIS-NIR; Horiba Jobin Yvon Inc., Edison, NJ, USA). […] Lifetime of Rose Bengal is longer than that of Erythrosine, showing complete photobleaching after 120 min (60 min for Erythrosine). Both are also activated by a white LED with 2400 lux. Considering that the standard illumination level of normal workstation spaces is 500 lux, the lasting time of singlet oxygen generation for Rose Bengal and Erythrosine can be estimated to be about 9.6 and 4.8 hours, respectively.

Erythrosine [FD&C RED No. 3]
complete photobleaching after (lifetime): 60 min
lasting time of singlet oxygen generation: ~4.8 h

O=C([O-])c1c(Cl)c(Cl)c(Cl)c(Cl)c1-c1c2cc(I)c(=O)c(I)c-2oc2c(I)c([O-])c(I)cc12.[Na+].[Na+] [FD&C RED No. 105, Rose Bengal]
complete photobleaching after (lifetime): 120 min
lasting time of singlet oxygen generation: about 9.6 hours
